Experimental data reported in patent US20070219159A1, “CYCLODEXTRIN COMPOSITIONS AND METHODS OF TREATING VIRAL INFECTIONS” (priority 2002, published 2007).
Like-named read-outs stand apart in the source and are kept apart here.

Key:
[1] = system: Flu A
[2] = system: MV
[3] = system: HHV-6
[4] = system: EBV
[5] = system: VZV
[6] = system: HSV-1 strain KOS1.1; experiment: CPE reduction assay in Vero cells, HSV-1; assay type: cell-based; conditions: HSV-1; final concentrations up to 8 mg/ml
[7] = system: Vaccinia
[8] = system: Pichinde
[9] = system: West Nile; experiment: In vitro antiviral screening (Table 1), West Nile
[10] = system: HSV-2 strain MS; experiment: CPE reduction assay in Vero cells, HSV-2; assay type: cell-based; conditions: HSV-2; final concentrations up to 8 mg/ml
[11] = system: HCV; experiment: In vitro anti-HCV assay in HCV RNA-replicating cell line AVA5; assay type: cell-based; conditions: HCV
Experimental: (§1) The antiviral activity of test compounds were assayed in the stably HCV RNA-replicating cell line. AVA5, derived by transfection of the human hepatoblastoma cell line, Huh^7 (Blight et al., 2000). Experimental drugs were added to dividing cultures once daily for three days. Media was changed with each addition of compound. Cultures generally started the assays at 50% confluence and reached confluence during the last day of treatment. HCV RNA and cellular β-actin RNA levels were assessed 24 hours after the last dose of compound using dot blot hybridization. Assays were conducted using a single dose of test compound (in triplicate cultures).
(§2) Both HCV and β-actin RNA levels in the treated cultures were expressed as a percentage of the mean levels of RNA detected in untreated cultures. β-actin RNA levels were used both as a measure of toxicity, and to normalize the amount of cellular RNA in each sample. A level of 30% or less HCV RNA (relative to control cultures) was considered to be a positive antiviral effect, and a level of 50% or less β-actin RNA (relative to control cultures) is considered to be a cytotoxic effect.
(§3) Dividing cultures of AVAB cells were treated once daily for three days (media was changed with each addition of compound) with 4 concentrations of test compounds (3 cultures per concentration). A total of 6 untreated control cultures, and triplicate cultures treated with 10, 3, and 1 IU/ml α-interferon (active antiviral with no cytotoxicity), and 100, 10, and 1 μM ribavir ([…]) served as controls. HCV RNA and cellular β-actin FNA levels were assessed 24 hours after the last dose of compound using dot blot hybridization. β-actin RNA levels were used to normalize the amount of cellular RNA in each sample.
(§4) Toxicity analyses were performed on separate plates from those used for the antiviral assays. Cells for the toxicity analyses were cultured and treated with test compounds with the same schedule and under identical culture conditions used for the antiviral evaluations. Each compound was tested at 4 concentrations, each in triplicate cultures. Uptake of neutral red dye was used to determine the relative level of toxicity 24 hours following the last treatment. The absorbance of internalized dye at […] (A510) was used for the quantitative analysis. Values in test cultures were compared to 9 cultures of untreated cells maintained on the same plate as the test cultures.
(§5) Assays similar to those described above were conducted.

[12] = system: Resp syncytial
[13] = system: Measles
[14] = system: HSV-2; conditions: in general 1000-fold less drug than Examples 1-6 and 10
[15] = system: VEE
[16] = system: MCMV
[17] = system: HSV-1; conditions: in general 1000-fold less drug than Examples 1-6 and 10
[18] = system: RSV
[19] = system: Ad
[20] = system: HHV-7
[21] = system: Punta Toro
[22] = system: Flu B
[23] = system: Yellow fever
[24] = system: HCMV
[25] = system: Cowpox
[26] = system: Rhino
[27] = system: PIV
[28] = system: HRV
[29] = HSV-infected cells; cited from earlier work
[30] = In vitro anti-HCV assay in HCV RNA-replicating cell line AVA5; assay type: cell-based; conditions: human, AVA5 cells (HCV RNA-replicating Huh7 line); toxicity control, no antiviral activity; read-out: approximate CC90
Experimental: as §1, §2, §3, §4, §5

[31] = system: Vero cells; conditions: 48 hours exposure; extrapolated from cell killing graph (FIG. 5)
[32] = system: vaccinia Western Reserve strain (WR); assay type: cell-based

## OC[C@H]1O[C@@H]2O[C@H]3[C@H](O)[C@@H](O)[C@@H](O[C@H]4[C@H](O)[C@@H](O)[C@@H](O[C@H]5[C@H](O)[C@@H](O)[C@@H](O[C@H]6[C@H](O)[C@@H](O)[C@@H](O[C@H]7[C@H](O)[C@@H](O)[C@@H](O[C@H]1[C@H](O)[C@H]2O)O[C@@H]7CO)O[C@@H]6CO)O[C@@H]5CO)O[C@@H]4CO)O[C@@H]3CO [ACD, α-cyclodextrin]
[1]
  SI = CC50/EC50: 0
[2]
  SI = CC50/EC50: 0
[3]
  SI = CC50/EC50: 0
[4]
  SI = CC50/EC50: >1.5
[5]
  SI = CC50/EC50: 0
[6]
  antiviral activity in infected Vero cells: no significant antiviral activity
[7]
  SI = CC50/EC50: 0
[8]
  SI = CC50/EC50: 0
[9]
  SI = CC50/EC50: 0
[10]
  antiviral activity in infected Vero cells: no significant antiviral activity
[11]
  S.I. for HCV: 0.72
[12]
  SI = CC50/EC50: 0
[13]
  SI = CC50/EC50: 0
[14]
  SI = CC50/EC50: 0
[15]
  SI = CC50/EC50: 0
[16]
  SI = CC50/EC50: 0
[17]
  SI = CC50/EC50: 0
[18]
  SI = CC50/EC50: 0
[19]
  SI = CC50/EC50: 0
[20]
  SI = CC50/EC50: 0
[21]
  SI = CC50/EC50: 0
[22]
  SI = CC50/EC50: 0
[23]
  SI = CC50/EC50: 0
[24]
  SI = CC50/EC50: 0
[25]
  SI = CC50/EC50: 0
[26]
  SI = CC50/EC50: 0
[27]
  SI = CC50/EC50: 0
[28]
  SI = CC50/EC50: 0

## penciclovir triphosphate
[29]
  intracellular half life: 12 h

## NC(=O)c1ncn([C@@H]2O[C@H](CO)[C@@H](O)[C@H]2O)n1 [ribavirin, reference compound]
[30]
  CC90 at 3 days: ~100 µM

## methyl-β-cyclodextrin [MBCD]
[1]; Flu A
  SI = CC50/EC50: 0
[2]
  SI = CC50/EC50: 0
[8]
  SI = CC50/EC50: 0
[9]
  SI = CC50/EC50: 0 (?)
[11]
  S.I. for HCV: 1.69
[15]
  SI = CC50/EC50: 0
[21]; Punta Toro
  SI = CC50/EC50: 0
[31]
  CC50 at 48 hours for Vero cells: approximately 5.5 mg/ml
[32]; MBCD 4 to 4.5 mg/ml, β-CD 7.2 mg/ml, pre- and post-infection, 48 hours
  anti-vaccinia virus activity (cytopathic effect versus untreated wells): much fewer and smaller areas of cytopathic effect
[32]; flat portion of the cell killing curve
  concentration at which anti-vaccinia virus activity was observed: < 4.5 mg/mL
